Measurements as given in article PMC10177510, “A Multicenter, Open-Label, Phase I/II Study of FN-1501 in Patients with Advanced Solid Tumors” (Cancers, 2023).

Assay: Phase I/II dose escalation: safety and tolerability (DLT, TEAE)
Assay type: in vivo
Procedure: This Phase 1/2, FIH, open-label, multi-center, single-arm, dose-escalation study was conducted in pts with histologically or cytologically confirmed advanced solid tumors or R/R AML.
In the absence of worrisome toxicity, the remaining pts could be enrolled and dosed in that cohort. Safety evaluations were performed by investigators, the medical monitor, and the Sponsor. A Safety Monitoring Committee determined dose levels to be administered during dose escalation based on data available from the current and previous dose levels.

In the case of `CN1CCN(Cc2ccc(NC(=O)c3[nH]ncc3Nc3ncnc4[nH]ccc34)cc2)CC1` [FN-1501], the “Dose-Limiting Toxicity” value (2.5 mg/day, 4 patients) is reported as 0, the “Abdominal pain, patients with event” value (2.5 mg/day, N = 4) is reported as 1 and the “Back pain, patients with event” value (2.5 mg/day, N = 4) is reported as 1. For the same compound, the “Constipation, patients with event” value (2.5 mg/day, N = 4) was 0, the “Decreased appetite, patients with event” value (2.5 mg/day, N = 4) was 1 and the “Diarrhea, patients with event” value (2.5 mg/day, N = 4) was 0. The “Dizziness, patients with event” value (2.5 mg/day, N = 4) was 0, the “Dyspnea, patients with event” value (2.5 mg/day, N = 4) was 1 and the “Fatigue, Grade ≥ 3 TEAE, n (%)” value (2.5 mg/day, N = 4) was 1 (25). The “Fatigue, patients with event” value (2.5 mg/day, N = 4) was 1, the “Infusion-related reaction, patients with event” value (“Infusion-related reaction” for short) (2.5 mg/day, N = 4) was 0 and the “Nausea, patients with event” value (2.5 mg/day, N = 4) was 1. For the same compound, the “Oedema peripheral, patients with event” value (2.5 mg/day, N = 4) was 1, the “Pyrexia, patients with event” value (2.5 mg/day, N = 4) was 0 and the “Total number of TEAEs” value (2.5 mg/day, N = 4) was 20. For the same compound, the “Total patients with at least 1 TEAE” value (2.5 mg/day, N = 4) was 4, the “Vomiting, patients with event” value (2.5 mg/day, N = 4) was 1 and the “Dose-Limiting Toxicity” value (5 mg/day, 3 patients) was 0. The “Abdominal pain, patients with event” value (5 mg/day, N = 3) was 1, the “Back pain, patients with event” value (5 mg/day, N = 3) was 0 and the “Constipation, patients with event” value (5 mg/day, N = 3) was 1. The “Decreased appetite, patients with event” value (5 mg/day, N = 3) was 0, the “Diarrhea, patients with event” value (5 mg/day, N = 3) was 1 and the “Diarrhoea, Grade ≥ 3 TEAE, n (%)” value (5 mg/day, N = 3) was 1. For the same compound, the “Dizziness, patients with event” value (5 mg/day, N = 3) was 0, the “Dyspnea, patients with event” value (5 mg/day, N = 3) was 0 and the “Fatigue, patients with event” value (5 mg/day, N = 3) was 1. For the same compound, the “Infusion-related reaction” value (5 mg/day, N = 3) was 1, the “Nausea, patients with event” value (5 mg/day, N = 3) was 1 and the “Oedema peripheral, patients with event” value (5 mg/day, N = 3) was 1. For the same compound, the “Pyrexia, patients with event” value (5 mg/day, N = 3) was 1, the “Small intestinal obstruction, Grade ≥ 3 TEAE, n (%)” value (5 mg/day, N = 3) was 1 (33) and the “Total number of TEAEs” value (5 mg/day, N = 3) was 23. The “Total patients with at least 1 TEAE” value (5 mg/day, N = 3) was 3, the “Vomiting, patients with event” value (5 mg/day, N = 3) was 1 and the “Dose-Limiting Toxicity” value (10 mg/day, 5 patients) was 0. The “Abdominal pain, patients with event” value (10 mg/day, N = 5) was 0, the “Back pain, patients with event” value (10 mg/day, N = 5) was 0 and the “Bacterial sepsis, Grade ≥ 3 TEAE, n (%)” value (10 mg/day, N = 5) was 1. The “Constipation, patients with event” value (10 mg/day, N = 5) was 1, the “Decreased appetite, patients with event” value (10 mg/day, N = 5) was 0 and the “Delirium, Grade ≥ 3 TEAE, n (%)” value (10 mg/day, N = 5) was 1. The “Diarrhea, patients with event” value (10 mg/day, N = 5) was 0, the “Dizziness, patients with event” value (10 mg/day, N = 5) was 0 and the “Dyspnea, patients with event” value (10 mg/day, N = 5) was 1. For the same compound, the “Fatigue, patients with event” value (10 mg/day, N = 5) was 2, the “Infusion-related reaction” value (10 mg/day, N = 5) was 0 and the “Lung infection, Grade ≥ 3 TEAE, n (%)” value (10 mg/day, N = 5) was 1. The “Nausea, patients with event” value (10 mg/day, N = 5) was 1, the “Oedema peripheral, patients with event” value (10 mg/day, N = 5) was 0 and the “Pyrexia, patients with event” value (10 mg/day, N = 5) was 0. For the same compound, the “Stomatitis, Grade ≥ 3 TEAE, n (%)” value (10 mg/day, N = 5) was 1, the “Total number of TEAEs” value (10 mg/day, N = 5) was 25 and the “Total patients with at least 1 TEAE” value (10 mg/day, N = 5) was 4. The “Vomiting, patients with event” value (10 mg/day, N = 5) was 1, the “Dose-Limiting Toxicity” value (15 mg/day, 3 patients) was 0 and the “Abdominal pain, patients with event” value (15 mg/day, N = 3) was 1. For the same compound, the “Back pain, patients with event” value (15 mg/day, N = 3) was 1, the “Catheter site infection, Grade ≥ 3 TEAE, n (%)” value (15 mg/day, N = 3) was 1 and the “Constipation, patients with event” value (15 mg/day, N = 3) was 1. For the same compound, the “Decreased appetite, patients with event” value (15 mg/day, N = 3) was 0, the “Diarrhea, patients with event” value (15 mg/day, N = 3) was 2 and the “Dizziness, patients with event” value (15 mg/day, N = 3) was 2. For the same compound, the “Dyspnea, patients with event” value (15 mg/day, N = 3) was 0, the “Fatigue, patients with event” value (15 mg/day, N = 3) was 0 and the “Infusion-related reaction” value (15 mg/day, N = 3) was 1. The “Nausea, patients with event” value (15 mg/day, N = 3) was 2, the “Oedema peripheral, patients with event” value (15 mg/day, N = 3) was 0 and the “Pyrexia, patients with event” value (15 mg/day, N = 3) was 1. The “Total number of TEAEs” value (15 mg/day, N = 3) was 41, the “Total patients with at least 1 TEAE” value (15 mg/day, N = 3) was 3 and the “Vascular access complication, Grade ≥ 3 TEAE, n (%)” value (15 mg/day, N = 3) was 1. For the same compound, the “Vomiting, patients with event” value (15 mg/day, N = 3) was 0, the “Dose-Limiting Toxicity” value (22.5 mg/day, 4 patients) was 0 and the “Abdominal pain, Grade ≥ 3 TEAE, n (%)” value (22.5 mg/day, N = 4) was 1. The “Abdominal pain, patients with event” value (22.5 mg/day, N = 4) was 2, the “Back pain, patients with event” value (22.5 mg/day, N = 4) was 0 and the “Constipation, patients with event” value (22.5 mg/day, N = 4) was 1. For the same compound, the “Decreased appetite, patients with event” value (22.5 mg/day, N = 4) was 2, the “Diarrhea, patients with event” value (22.5 mg/day, N = 4) was 0 and the “Dizziness, patients with event” value (22.5 mg/day, N = 4) was 1. For the same compound, the “Dyspnea, patients with event” value (22.5 mg/day, N = 4) was 1, the “Fatigue, patients with event” value (22.5 mg/day, N = 4) was 2 and the “Infusion-related reaction” value (22.5 mg/day, N = 4) was 0. For the same compound, the “Nausea, patients with event” value (22.5 mg/day, N = 4) was 1, the “Oedema peripheral, patients with event” value (22.5 mg/day, N = 4) was 0 and the “Pyrexia, patients with event” value (22.5 mg/day, N = 4) was 1. The “Total number of TEAEs” value (22.5 mg/day, N = 4) was 26, the “Total patients with at least 1 TEAE” value (22.5 mg/day, N = 4) was 4 and the “Vomiting, patients with event” value (22.5 mg/day, N = 4) was 1. For the same compound, the “Dose-Limiting Toxicity” value (30 mg/day, 3 patients) was 0, the “Abdominal pain, patients with event” value (30 mg/day, N = 3) was 1 and the “Back pain, patients with event” value (30 mg/day, N = 3) was 0. The “Constipation, patients with event” value (30 mg/day, N = 3) was 0, the “Decreased appetite, patients with event” value (30 mg/day, N = 3) was 0 and the “Diarrhea, patients with event” value (30 mg/day, N = 3) was 1. The “Dizziness, patients with event” value (30 mg/day, N = 3) was 0, the “Dyspnea, patients with event” value (30 mg/day, N = 3) was 0 and the “Fatigue, patients with event” value (30 mg/day, N = 3) was 1. The “Hyponatraemia, Grade ≥ 3 TEAE, n (%)” value (30 mg/day, N = 3) was 1, the “Infusion-related reaction” value (30 mg/day, N = 3) was 0 and the “Nausea, patients with event” value (30 mg/day, N = 3) was 1. The “Oedema peripheral, patients with event” value (30 mg/day, N = 3) was 0, the “Pyrexia, patients with event” value (30 mg/day, N = 3) was 0 and the “Syncope, Grade ≥ 3 TEAE, n (%)” value (30 mg/day, N = 3) was 1 (33). For the same compound, the “Total number of TEAEs” value (30 mg/day, N = 3) was 16, the “Total patients with at least 1 TEAE” value (30 mg/day, N = 3) was 3 and the “Vomiting, patients with event” value (30 mg/day, N = 3) was 0. For the same compound, the “Dose-Limiting Toxicity” value (40 mg/day, 4 patients) was 0, the “Abdominal distension, Grade ≥ 3 TEAE, n (%)” value (40 mg/day, N = 4) was 1 (25) and the “Abdominal pain, patients with event” value (40 mg/day, N = 4) was 0. The “Back pain, patients with event” value (40 mg/day, N = 4) was 0, the “Blood alkaline phosphatase increased, Grade ≥ 3 TEAE, n (%)” value (40 mg/day, N = 4) was 1 (25) and the “Blood bilirubin increased, Grade ≥ 3 TEAE, n (%)” value (40 mg/day, N = 4) was 1 (25). For the same compound, the “Constipation, patients with event” value (40 mg/day, N = 4) was 0, the “Decreased appetite, patients with event” value (40 mg/day, N = 4) was 0 and the “Diarrhea, patients with event” value (40 mg/day, N = 4) was 1. The “Dizziness, patients with event” value (40 mg/day, N = 4) was 0, the “Dyspnea, patients with event” value (40 mg/day, N = 4) was 0 and the “Fatigue, patients with event” value (40 mg/day, N = 4) was 1. For the same compound, the “Hyponatraemia, Grade ≥ 3 TEAE, n (%)” value (40 mg/day, N = 4) was 1, the “Infusion-related reaction” value (40 mg/day, N = 4) was 0 and the “Nausea, patients with event” value (40 mg/day, N = 4) was 0. For the same compound, the “Oedema peripheral, patients with event” value (40 mg/day, N = 4) was 1, the “Peritonitis, Grade ≥ 3 TEAE, n (%)” value (40 mg/day, N = 4) was 1 (25) and the “Pyrexia, patients with event” value (40 mg/day, N = 4) was 1. For the same compound, the “Total number of TEAEs” value (40 mg/day, N = 4) was 21, the “Total patients with at least 1 TEAE” value (40 mg/day, N = 4) was 4 and the “Vomiting, patients with event” value (40 mg/day, N = 4) was 1. The “Dose-Limiting Toxicity” value (54 mg/day, 3 patients) was 0, the “Abdominal pain, patients with event” value (54 mg/day, N = 3) was 0 and the “Anaemia, Grade ≥ 3 TEAE, n (%)” value (54 mg/day, N = 3) was 1 (33). For the same compound, the “Back pain, patients with event” value (54 mg/day, N = 3) was 0, the “Constipation, patients with event” value (54 mg/day, N = 3) was 0 and the “Decreased appetite, patients with event” value (54 mg/day, N = 3) was 0. The “Diarrhea, patients with event” value (54 mg/day, N = 3) was 0, the “Dizziness, patients with event” value (54 mg/day, N = 3) was 0 and the “Dyspnea, patients with event” value (54 mg/day, N = 3) was 0. The “Fatigue, Grade ≥ 3 TEAE, n (%)” value (54 mg/day, N = 3) was 1 (33), the “Fatigue, patients with event” value (54 mg/day, N = 3) was 2 and the “Infusion-related reaction” value (54 mg/day, N = 3) was 1. For the same compound, the “Nausea, patients with event” value (54 mg/day, N = 3) was 0, the “Oedema peripheral, patients with event” value (54 mg/day, N = 3) was 0 and the “Pyrexia, patients with event” value (54 mg/day, N = 3) was 0. For the same compound, the “Total number of TEAEs” value (54 mg/day, N = 3) was 12, the “Total patients with at least 1 TEAE” value (54 mg/day, N = 3) was 3 and the “Vomiting, patients with event” value (54 mg/day, N = 3) was 0. The “Dose-Limiting Toxicity” value (72 mg/day, 3 patients) was 0, the “Abdominal pain, patients with event” value (72 mg/day, N = 3) was 1 and the “Back pain, patients with event” value (72 mg/day, N = 3) was 1. For the same compound, the “Constipation, patients with event” value (72 mg/day, N = 3) was 0 and the “Decreased appetite, patients with event” value (72 mg/day, N = 3) was 0.
